Source: patent publication US20020137929A1, “1 - (3-heterocyclylphenyl) isothiourea, -isourea, -guanidine and -amidine herbicidal agents” (Intellectual Property Department, BASF Aktiengesellschaft, priority 1998, published 2002)

Assays:
[1] = test system: ECHORC (Watergrass (Calif.)); assay: Preemergence weed control under flooded paddy conditions; type: in vivo, Echinochloa oryzoides; conditions: rated 3-4 weeks after treatment
In short: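 Silt loam, seeds in top 0.5 cm; flood held 1.5-3 cm; test cpd as acetone/water 50/50 into flood water, ~0.0313-0.500 kg/ha a.i.; greenhouse 3-4 wk; visual 0-9 score vs control.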

[2] = test system: IPOHE (Morningglory, Ivyleaf); assay: Postemergence herbicidal evaluation; type: in vivo, Ipomoea hederacea; conditions: postemergence
In short: (§1)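 First, seedlings were raised for around two weeks. Next, test material in 50/50 acetone/water containing 0.5% TWEEN 20 was sprayed through a nozzle at 40 psi, equivalent to about 0.0156–0.500 kg/ha. Finally, after 4–5 weeks in the greenhouse, plants were rated 0–9.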

[3] = test system: ORYSAT (Rice, Tebonnet); assay: Preemergence herbicidal evaluation; type: in vivo, Oryza sativa, (L.) Tebonnet; conditions: rated 4-5 weeks after treatment, rating scale 0-9
In short: (§2)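 Seeds were planted in potting soil in cups, then sprayed preemergence with the test compound in aqueous acetone at about 0.0156 to 0.500 kg per hectare. Cups were kept under greenhouse conditions and visually rated 4–5 weeks after treatment on a 0–9 scale against an untreated control.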

[4] = test system: ABUTH (Velvetleaf); assay: Postemergence herbicidal evaluation; type: in vivo, Abutilon theophrasti; conditions: postemergence
In short: as §1

[5] = test system: MOOVA (Monochoria); assay: Preemergence weed control under flooded paddy conditions; type: in vivo, Monochoria vaginalis; conditions: rated 3-4 weeks after treatment
In short: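 Seeds or propagules sown in top 0.5 cm of silt loam soil, flooded 1.5 to 3 cm above surface throughout. Compound in 50/50 v/v aqueous/acetone pipetted into flood water at about 0.0313 to 0.500 kg/ha. Visual 0-9 rating versus control after three to four weeks in greenhouse.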

[6] = test system: CHEAL (Lambsquarters, Common); assay: Preemergence herbicidal evaluation; type: in vivo, Chenopodium album; conditions: rated 4-5 weeks after treatment, rating scale 0-9
In short: as §2

[7] = test system: IPOHE (Morningglory, Ivyleaf); assay: Preemergence herbicidal evaluation; type: in vivo, Ipomoea hederacea; conditions: rated 4-5 weeks after treatment, rating scale 0-9
In short: as §2

[8] = test system: SETVI (Foxtail, Green); assay: Preemergence herbicidal evaluation; type: in vivo, Setaria viridis; conditions: rated 4-5 weeks after treatment, rating scale 0-9
In short: as §2

[9] = test system: ECHCG (Barnyardgrass); assay: Preemergence herbicidal evaluation; type: in vivo, Echinochloa crus-galli; conditions: rated 4-5 weeks after treatment, rating scale 0-9
In short: as §2

[10] = test system: TRZAWR (Wheat, Winter, cv Riband); assay: Postemergence herbicidal evaluation; type: in vivo, Triticum aestivum; conditions: postemergence
In short: as §1

[11] = test system: TRZAWR (Wheat, Winter, cv Riband); assay: Preemergence herbicidal evaluation; type: in vivo, Triticum aestivum; conditions: rated 4-5 weeks after treatment, rating scale 0-9
In short: as §2

## Cn1c(C(F)(F)F)cc(=O)n(-c2cc(N=C3SCC(=O)N3Cc3cccc(C(F)(F)F)c3)c(Cl)cc2F)c1=O [Compound 142, 3-{4-Chloro-2-fluoro-5-{{3-[m-(trifluoromethyl)benzyl]-4-oxo-2-thiazolidinylidene}-amino}phenyl}-1-methyl-6-(trifluoromethyl)-2,4(1H,3H)-pyrimidinedione]
[1]; 0.0313 kg/ha
  herbicidal effect rating, ECHORC: 4.0
[1]; 0.0625 kg/ha
  herbicidal effect rating, ECHORC: 5.0
[1]; 0.1250 kg/ha
  herbicidal effect rating, ECHORC: 7.0
[1]; 0.2500 kg/ha
  herbicidal effect rating, ECHORC: 7.0
[2]; rate 0.0156 kg/ha
  herbicidal rating IPOHE: 7.0
[2]; rate 0.0313 kg/ha
  herbicidal rating IPOHE: 7.0
[2]; rate 0.0625 kg/ha
  herbicidal rating IPOHE: 9.0
[3]; rate 0.0156 kg/ha
  Preemergence herbicidal rating ORYSAT: 0.0
[3]; rate 0.0313 kg/ha
  Preemergence herbicidal rating ORYSAT: 0.0
[3]; rate 0.0625 kg/ha
  Preemergence herbicidal rating ORYSAT: 0.0
[3]; rate 0.1250 kg/ha
  Preemergence herbicidal rating ORYSAT: 1.0
[3]; rate 0.2500 kg/ha
  Preemergence herbicidal rating ORYSAT: 0.0
[4]; rate 0.0156 kg/ha
  herbicidal rating ABUTH: 3.0
[4]; rate 0.0313 kg/ha
  herbicidal rating ABUTH: 9.0
[4]; rate 0.0625 kg/ha
  herbicidal rating ABUTH: 9.0
[5]; 0.0313 kg/ha
  herbicidal effect rating, MOOVA: 6.0
[5]; 0.0625 kg/ha
  herbicidal effect rating, MOOVA: 7.0
[5]; 0.1250 kg/ha
  herbicidal effect rating, MOOVA: 9.0
[5]; 0.2500 kg/ha
  herbicidal effect rating, MOOVA: 8.0
[6]; rate 0.0156 kg/ha
  Preemergence herbicidal rating CHEAL: 4.0
[6]; rate 0.0313 kg/ha
  Preemergence herbicidal rating CHEAL: 3.0
[6]; rate 0.0625 kg/ha
  Preemergence herbicidal rating CHEAL: 9.0
[6]; rate 0.1250 kg/ha
  Preemergence herbicidal rating CHEAL: 9.0
[6]; rate 0.2500 kg/ha
  Preemergence herbicidal rating CHEAL: 9.0
[7]; rate 0.0156 kg/ha
  Preemergence herbicidal rating IPOHE: 0.0
[7]; rate 0.0313 kg/ha
  Preemergence herbicidal rating IPOHE: 0.0
[7]; rate 0.0625 kg/ha
  Preemergence herbicidal rating IPOHE: 0.0
[7]; rate 0.1250 kg/ha
  Preemergence herbicidal rating IPOHE: 1.0
[7]; rate 0.2500 kg/ha
  Preemergence herbicidal rating IPOHE: 2.0
[8]; rate 0.0156 kg/ha
  Preemergence herbicidal rating SETVI: 0.0
[8]; rate 0.0313 kg/ha
  Preemergence herbicidal rating SETVI: 1.0
[8]; rate 0.0625 kg/ha
  Preemergence herbicidal rating SETVI: 0.0
[8]; rate 0.1250 kg/ha
  Preemergence herbicidal rating SETVI: 2.0
[8]; rate 0.2500 kg/ha
  Preemergence herbicidal rating SETVI: 7.0
[9]; rate 0.0156 kg/ha
  Preemergence herbicidal rating ECHCG: 0.0
[9]; rate 0.0313 kg/ha
  Preemergence herbicidal rating ECHCG: 0.0
[9]; rate 0.0625 kg/ha
  Preemergence herbicidal rating ECHCG: 0.0
[9]; rate 0.1250 kg/ha
  Preemergence herbicidal rating ECHCG: 0.0
[9]; rate 0.2500 kg/ha
  Preemergence herbicidal rating ECHCG: 0.0
[10]; rate 0.0156 kg/ha
  herbicidal rating TRZAWR: 2.5
[10]; rate 0.0313 kg/ha
  herbicidal rating TRZAWR: 2.5
[10]; rate 0.0625 kg/ha
  herbicidal rating TRZAWR: 2.5
[11]; rate 0.0156 kg/ha
  Preemergence herbicidal rating TRZAWR: 0.0
[11]; rate 0.0313 kg/ha
  Preemergence herbicidal rating TRZAWR: 0.0
[11]; rate 0.0625 kg/ha
  Preemergence herbicidal rating TRZAWR: 0.0
[11]; rate 0.1250 kg/ha
  Preemergence herbicidal rating TRZAWR: 0.0
[11]; rate 0.2500 kg/ha
  Preemergence herbicidal rating TRZAWR: 0.0

## Cn1c(C(F)(F)F)cc(=O)n(-c2cc(N=C3SCC(=O)N3Cc3ccc(Br)cc3)c(Cl)cc2F)c1=O [Compound 148, 3-{5-{[3-(p-Bromobenzyl)-4-oxo-2-thiazolidinyl-idene]amino}-4-chloro-2-fluorophenyl}-1-methyl-6-(trifluoromethyl)-2,4(1H,3H)-pyrimidinedione]
[1]; 0.0313 kg/ha
  herbicidal effect rating, ECHORC: 6.0
[1]; 0.0625 kg/ha
  herbicidal effect rating, ECHORC: 7.0
[1]; 0.1250 kg/ha
  herbicidal effect rating, ECHORC: 9.0
[1]; 0.2500 kg/ha
  herbicidal effect rating, ECHORC: 9.0
[2]; rate 0.0156 kg/ha
  herbicidal rating IPOHE: 9.0
[2]; rate 0.0313 kg/ha
  herbicidal rating IPOHE: 9.0
[2]; rate 0.0625 kg/ha
  herbicidal rating IPOHE: 9.0
[3]; rate 0.0313 kg/ha
  Preemergence herbicidal rating ORYSAT: 0.0
[3]; rate 0.0625 kg/ha
  Preemergence herbicidal rating ORYSAT: 0.0
[3]; rate 0.1250 kg/ha
  Preemergence herbicidal rating ORYSAT: 0.0
[3]; rate 0.2500 kg/ha
  Preemergence herbicidal rating ORYSAT: 0.0
[4]; rate 0.0156 kg/ha
  herbicidal rating ABUTH: 9.0
[4]; rate 0.0313 kg/ha
  herbicidal rating ABUTH: 9.0
[4]; rate 0.0625 kg/ha
  herbicidal rating ABUTH: 9.0
[5]; 0.0313 kg/ha
  herbicidal effect rating, MOOVA: 7.0
[5]; 0.0625 kg/ha
  herbicidal effect rating, MOOVA: 7.0
[5]; 0.1250 kg/ha
  herbicidal effect rating, MOOVA: 9.0
[5]; 0.2500 kg/ha
  herbicidal effect rating, MOOVA: 9.0
[6]; rate 0.0313 kg/ha
  Preemergence herbicidal rating CHEAL: 6.0
[6]; rate 0.0625 kg/ha
  Preemergence herbicidal rating CHEAL: 9.0
[6]; rate 0.1250 kg/ha
  Preemergence herbicidal rating CHEAL: 9.0
[6]; rate 0.2500 kg/ha
  Preemergence herbicidal rating CHEAL: 9.0
[7]; rate 0.0313 kg/ha
  Preemergence herbicidal rating IPOHE: 0.0
[7]; rate 0.0625 kg/ha
  Preemergence herbicidal rating IPOHE: 0.0
[7]; rate 0.1250 kg/ha
  Preemergence herbicidal rating IPOHE: 0.0
[7]; rate 0.2500 kg/ha
  Preemergence herbicidal rating IPOHE: 0.0
[8]; rate 0.0313 kg/ha
  Preemergence herbicidal rating SETVI: 1.0
[8]; rate 0.0625 kg/ha
  Preemergence herbicidal rating SETVI: 0.0
[8]; rate 0.1250 kg/ha
  Preemergence herbicidal rating SETVI: 0.0
[8]; rate 0.2500 kg/ha
  Preemergence herbicidal rating SETVI: 5.0
[9]; rate 0.0313 kg/ha
  Preemergence herbicidal rating ECHCG: 0.0
[9]; rate 0.0625 kg/ha
  Preemergence herbicidal rating ECHCG: 0.0
[9]; rate 0.1250 kg/ha
  Preemergence herbicidal rating ECHCG: 0.0
[9]; rate 0.2500 kg/ha
  Preemergence herbicidal rating ECHCG: 0.0
[10]; rate 0.0156 kg/ha
  herbicidal rating TRZAWR: 2.5
[10]; rate 0.0313 kg/ha
  herbicidal rating TRZAWR: 3.0
[10]; rate 0.0625 kg/ha
  herbicidal rating TRZAWR: 4.0
[11]; rate 0.0313 kg/ha
  Preemergence herbicidal rating TRZAWR: 0.0
[11]; rate 0.0625 kg/ha
  Preemergence herbicidal rating TRZAWR: 0.0
[11]; rate 0.1250 kg/ha
  Preemergence herbicidal rating TRZAWR: 0.0
[11]; rate 0.2500 kg/ha
  Preemergence herbicidal rating TRZAWR: 0.0

## Cn1c(C(F)(F)F)cc(=O)n(-c2cc(N=C3SCC(=O)N3C3CC3)c(Cl)cc2F)c1=O [Compound 152, 3-{4-Chloro-5-[(3-cyclopropyl-4-oxo-2-thiazolidinylidene)amino]-2-fluorophenyl}-1-methyl-6-(trifluoromethyl)-2,4(1H,3H)-pyrimidinedione]
[1]; 0.0625 kg/ha
  herbicidal effect rating, ECHORC: 0.0
[1]; 0.1250 kg/ha
  herbicidal effect rating, ECHORC: 0.0
[1]; 0.2500 kg/ha
  herbicidal effect rating, ECHORC: 0.0
[2]; rate 0.0156 kg/ha
  herbicidal rating IPOHE: 7.0
[2]; rate 0.0313 kg/ha
  herbicidal rating IPOHE: 9.0
[2]; rate 0.0625 kg/ha
  herbicidal rating IPOHE: 9.0
[3]; rate 0.0313 kg/ha
  Preemergence herbicidal rating ORYSAT: 0.0
[3]; rate 0.0625 kg/ha
  Preemergence herbicidal rating ORYSAT: 1.0
[3]; rate 0.1250 kg/ha
  Preemergence herbicidal rating ORYSAT: 1.0
[3]; rate 0.2500 kg/ha
  Preemergence herbicidal rating ORYSAT: 1.0
[4]; rate 0.0156 kg/ha
  herbicidal rating ABUTH: 6.0
[4]; rate 0.0313 kg/ha
  herbicidal rating ABUTH: 4.0
[4]; rate 0.0625 kg/ha
  herbicidal rating ABUTH: 9.0
[5]; 0.0625 kg/ha
  herbicidal effect rating, MOOVA: 3.0
[5]; 0.1250 kg/ha
  herbicidal effect rating, MOOVA: 3.0
[5]; 0.2500 kg/ha
  herbicidal effect rating, MOOVA: 3.0
[6]; rate 0.0313 kg/ha
  Preemergence herbicidal rating CHEAL: 2.0
[6]; rate 0.0625 kg/ha
  Preemergence herbicidal rating CHEAL: 9.0
[6]; rate 0.1250 kg/ha
  Preemergence herbicidal rating CHEAL: 9.0
[6]; rate 0.2500 kg/ha
  Preemergence herbicidal rating CHEAL: 9.0
[7]; rate 0.0313 kg/ha
  Preemergence herbicidal rating IPOHE: 0.0
[7]; rate 0.0625 kg/ha
  Preemergence herbicidal rating IPOHE: 1.0
[7]; rate 0.1250 kg/ha
  Preemergence herbicidal rating IPOHE: 4.0
[7]; rate 0.2500 kg/ha
  Preemergence herbicidal rating IPOHE: 7.0
[8]; rate 0.0313 kg/ha
  Preemergence herbicidal rating SETVI: 0.0
[8]; rate 0.0625 kg/ha
  Preemergence herbicidal rating SETVI: 1.0
[8]; rate 0.1250 kg/ha
  Preemergence herbicidal rating SETVI: 1.0
[8]; rate 0.2500 kg/ha
  Preemergence herbicidal rating SETVI: 9.0
[9]; rate 0.0313 kg/ha
  Preemergence herbicidal rating ECHCG: 0.0
[9]; rate 0.0625 kg/ha
  Preemergence herbicidal rating ECHCG: 0.0
[9]; rate 0.1250 kg/ha
  Preemergence herbicidal rating ECHCG: 1.0
[9]; rate 0.2500 kg/ha
  Preemergence herbicidal rating ECHCG: 1.0
[10]; rate 0.0156 kg/ha
  herbicidal rating TRZAWR: 3.0
[10]; rate 0.0313 kg/ha
  herbicidal rating TRZAWR: 3.5
[10]; rate 0.0625 kg/ha
  herbicidal rating TRZAWR: 4.0
[11]; rate 0.0313 kg/ha
  Preemergence herbicidal rating TRZAWR: 0.0
[11]; rate 0.0625 kg/ha
  Preemergence herbicidal rating TRZAWR: 1.0
[11]; rate 0.1250 kg/ha
  Preemergence herbicidal rating TRZAWR: 1.0
[11]; rate 0.2500 kg/ha
  Preemergence herbicidal rating TRZAWR: 1.0
